From patent publication US20190230932A1, “Synergistic Combinations Of Monochloramine And Organic Acid, And Methods Of Using The Same For Microbial Control” (Buckman Laboratories International, Inc., priority 2018, published 2019)

Columns and labels:
[1] = test system: Pseudomonas bacterial cells; assay: Checkerboard of monochloramine and citric acid, OD 600 nm growth curves over 48 hours (Example 2, FIGS. 2-5); type: cell-based
Procedure: In this study, Pseudomonas bacterial cells were grown in nutrient broth media. The nutrient broth media comprised corn mash (35 wt %) and water. Appropriate amount of culture cells, monochloramine and/or citric acid were transferred into 24-well plate and incubated at 37° C. for 48 hrs. in a plate reader. The 24-well plate layout held samples which contained monochloramine added in concentrations (ppm) of 0, 12.5, 50 and 100 ppm in different rows of well samples, and citric acid added in concentrations (ppm) of 0, 500, 3,000, 7,000, 10,000, and 20,000 in different columns of well samples, in a checkerboard pattern. Bacterial growth was monitored for each sample using a UV-VIS spectrophotometer to measure optical density (OD) (at measurement wavelength 600 nm) for the samples for 48 hours. The growth curves from the data are plotted in FIGS. 2-5.

[2] = test system: Pseudomonas bacterial cells; assay: Checkerboard of monochloramine and citric acid, bacterial growth in corn mash nutrient broth, 24-well plate (Example 1); as to Bacterial growth at 12 hr.: key: −−−: No further growth observed; +++: Growth observed; type: cell-based; set-up: Bacterial growth at 12 hr. / Bacterial growth at 14 hr.: key: −−−: No further growth observed; +++: Growth observed; settings: for Bacterial growth at 12 hr. / Bacterial growth at 14 hr.: 37° C., 600 nm
Procedure: Laboratory experiments were performed to study the microbicidal efficacy of a combination of monochloramine with citric acid.
Pseudomonas bacterial cells were grown in nutrient broth media. The nutrient broth media comprised corn mash (35 wt %) and water. Appropriate amount of culture cells, monochloramine and/or citric acid were transferred into 24-well plate and incubated at 37° C. The 24-well plate layout held samples which contained monochloramine added in concentrations (ppm) of 0.00, 12.50, 50.00 and 100.00 in different rows of well samples, […], in different columns of well samples, in a checkerboard pattern, such as shown in Tables 1 and 2. Bacterial growth was monitored for each sample at 12 hours and 14 hours. Measurement was qualitative based upon measurement in a plate reader. A UV-VIS spectrophotometer was used at measurement wavelength 600 nm.

## O=C(O)CC(O)(CC(=O)O)C(=O)O [Citric acid (CA), citric acid]
[1]; citric acid alone, 500 to 20,000 ppm, no MCA, FIG. 2
  control of bacteria growth (OD 600 nm growth curve): not all of the evaluated citric acid concentrations controlled bacteria growth
[2]; 10,000 ppm citric acid added individually (no MCA)
  inhibition of bacterial growth: not inhibitory to bacterial growth
[2]; MCA 0 ppm, CA 500 ppm
  Bacterial growth at 12 hr.: +++
  Bacterial growth at 14 hr.: +++
[2]; MCA 0 ppm, CA 1000 ppm
  Bacterial growth at 12 hr.: +++
  Bacterial growth at 14 hr.: +++
[2]; MCA 0 ppm, CA 3000 ppm
  Bacterial growth at 12 hr.: +++
  Bacterial growth at 14 hr.: +++
[2]; MCA 0 ppm, CA 7000 ppm
  Bacterial growth at 12 hr.: +++
  Bacterial growth at 14 hr.: +++
[2]; MCA 0 ppm, CA 10000 ppm
  Bacterial growth at 12 hr.: +++
  Bacterial growth at 14 hr.: +++

## NCl [Oxamine (MCA), monochloramine]
[1]; 12.5 ppm monochloramine alone, FIG. 3
  control of bacteria growth (OD 600 nm growth curve): no control of bacteria growth
[1]; 50 ppm monochloramine alone, FIG. 4
  control of bacteria growth (OD 600 nm growth curve): cells growth was delayed
[1]; 100 ppm monochloramine without citric acid, FIG. 5
  control of bacteria growth (OD 600 nm growth curve): total inhibition of bacteria growth
[2]; 50 ppm monochloramine added individually
  inhibition of bacterial growth: not inhibitory to bacterial growth
[2]; 100 ppm MCA alone
  control of bacterial growth: sufficient to control
[2]; MCA 12.5 ppm, CA 0 ppm
  Bacterial growth at 12 hr.: +++
  Bacterial growth at 14 hr.: +++
[2]; MCA 50 ppm, CA 0 ppm
  Bacterial growth at 12 hr.: +++
  Bacterial growth at 14 hr.: +++
